From ChEMBL document CHEMBL4368902 (J Med Chem, 2019) come the findings set out here.

Data set [1] deals with Mus musculus. The data set can be described thus: Anorexigenic activity in C57BL/6J mouse assessed as reduction in ghrelin-induced food intake at 0.6 nmol/g body weight, sc measured after 2 hrs post dose. It is filed as functional, organism-based.
The subject of data set [2] is Mus musculus. The data set can be described thus: Effect on food intake in C57BL/6J mouse at 0.6 nmol/g body weight, sc measured after 2 hrs post dose. The conditions noted are these: in vivo. It counts as ADME, organism-based.
The target of data set [3] is T1, Growth hormone secretagogue receptor type 1 (Homo sapiens, UniProt Q92847). Description: Displacement of […] from SNAP-tagged human GHSR expressed in HEK293T cells after 3 hrs by HTRF assay. It counts as cell-based. In general terms: In a radioligand displacement assay an active substance lowers the binding of a labelled ligand.
Data set [4] deals with T1, Growth hormone secretagogue receptor type 1. The data set can be described thus: Inverse agonist activity at SNAP-tagged human GHSR expressed in HEK293T cells assessed as reduction in inositol phosphate production after 30 mins by HTRF assay. It counts as functional, cell-based.
Data set [5] shares this target. Description: Competitive antagonist activity at SNAP-tagged human GHSR expressed in HEK293T cells assessed as reduction in ghrelin-induced inositol phosphate production at 1 uM after 30 mins by HTRF assay. The conditions noted are these: read-out: pA2 (converted). It is filed as functional, cell-based.
The target is the same in data set [6]. Description: Competitive antagonist activity at human SNAP-tagged GHSR expressed in HEK293T cells assessed as reduction in ghrelin-induced calcium production at 1 uM after 15 mins by Fluo 4-AM dye-based fluorescence assay. It counts as functional, cell-based. The conditions noted are these: read-out: pA2 (converted).
Data set [7] concerns the target Growth hormone secretagogue receptor type 1 (Rattus norvegicus) (UniProt O08725). The data set can be described thus: Inverse agonist activity at GHSR in Wistar rat pancreatic islets assessed as inhibition of ghrelin-induced insulinostatic action after 1 hr in presence of glucose.

Active and inactive are the calls of the source. The calls are words filed in the database; no cut-off is given here. Positions of bridges follow the written chain, without caps; N, C: chain ends. Non-standard residues stand in square brackets, D forms with d. Residues, ends and D or L forms follow the SMILES beside them. Nle = CCCC[C@H](N)C(=O)O

T1 sequence (Q92847 whole entry): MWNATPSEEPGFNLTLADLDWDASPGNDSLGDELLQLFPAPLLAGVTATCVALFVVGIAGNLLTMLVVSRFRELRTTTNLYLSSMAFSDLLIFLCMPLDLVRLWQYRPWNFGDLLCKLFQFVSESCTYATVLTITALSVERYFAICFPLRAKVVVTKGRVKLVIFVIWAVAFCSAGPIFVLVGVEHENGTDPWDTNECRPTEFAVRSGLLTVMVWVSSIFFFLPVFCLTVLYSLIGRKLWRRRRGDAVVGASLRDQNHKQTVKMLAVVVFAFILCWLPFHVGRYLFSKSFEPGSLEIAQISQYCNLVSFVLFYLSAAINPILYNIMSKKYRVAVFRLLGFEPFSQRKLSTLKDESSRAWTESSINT
Sequence of Growth hormone secretagogue receptor type 1 (Rattus norvegicus) (O08725 whole entry, looked up): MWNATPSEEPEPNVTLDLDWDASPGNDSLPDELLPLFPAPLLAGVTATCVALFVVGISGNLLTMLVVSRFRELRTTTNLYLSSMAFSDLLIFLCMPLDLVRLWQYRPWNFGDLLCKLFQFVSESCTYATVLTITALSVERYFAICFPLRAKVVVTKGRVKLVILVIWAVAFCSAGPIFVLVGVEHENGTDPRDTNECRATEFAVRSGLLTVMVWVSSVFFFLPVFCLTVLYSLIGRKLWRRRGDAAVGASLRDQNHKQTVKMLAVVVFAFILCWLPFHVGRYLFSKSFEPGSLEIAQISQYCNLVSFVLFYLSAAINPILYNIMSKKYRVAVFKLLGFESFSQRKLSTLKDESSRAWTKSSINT

Consider `CC(C)C[C@H](NC(=O)[C@H](CO)NC(=O)[C@@H]1CSSC[C@@H]2NC(=O)[C@H](CCC(=O)O)NC(=O)[C@H](CO)NC(=O)[C@@H](CC(=O)O)NC(=O)[C@@H](CC(=O)O)NC(=O)[C@@H](CCCNC(=N)N)NC(=O)[C@H](NC(=O)[C@@H](CO)NC(=O)[C@@H](C)N)CSSC[C@H](NC(=O)[C@H](CC(C)C)NC(=O)[C@H](CCCNC(=N)N)NC(=O)[C@H]([C@@H](C)O)NC(=O)[C@H]([C@@H](C)O)NC2=O)C(=O)N[C@@H](CCCNC(=N)N)C(=O)N[C@@H](CCCCN)C(=O)N[C@@H](CCCNC(=N)N)C(=O)N[C@@H](CCCNC(=N)N)C(=O)N1)C(=O)N[C@@H](CO)C(=O)N[C@H](C(=O)N[C@@H](C)C(=O)N[C@@H](CCC(N)=O)C(=O)N[C@@H](CCC(=O)O)C(=O)O)C(C)C`, for which the result in data set [1] was inactive.

As for `CCCC[C@H](N)C(=O)N[C@H](C(=O)N1CCC[C@H]1C(=O)N[C@@H](Cc1ccccc1)C(=O)N[C@@H](Cc1c[nH]c2ccccc12)C(=O)N[C@@H](CCCNC(=N)N)C(=O)NCC(=O)N[C@H](C(=O)N[C@@H](CO)C(=O)N[C@@H](CC(C)C)C(=O)N[C@@H](CCCNC(=N)N)C(=O)N1CCC[C@H]1C(=O)N[C@H](C(=O)NCC(=O)N[C@H](C)C(=O)N[C@H](CO)C(=O)N[C@@H]1CSSC[C@@H]2NC(=O)[C@H](CC(C)C)NC(=O)[C@H](CCCNC(=N)N)NC(=O)[C@H]([C@@H](C)O)NC(=O)[C@H]([C@@H](C)O)NC(=O)[C@H](CSSC[C@@H](C(=O)N[C@@H](CO)C(=O)N[C@@H](CC(C)C)C(=O)N[C@@H](CO)C(=O)N[C@H](C(=O)N[C@@H](C)C(=O)N[C@@H](CCC(N)=O)C(=O)N[C@@H](CCC(=O)O)C(=O)O)C(C)C)NC(=O)[C@H](CCCNC(=N)N)NC(=O)[C@H](CCCNC(=N)N)NC(=O)[C@H](CCCCN)NC(=O)[C@H](CCCNC(=N)N)NC2=O)NC(=O)[C@H](CCC(=O)O)NC(=O)[C@H](CO)NC(=O)[C@@H](CC(=O)O)NC(=O)[C@@H](CC(=O)O)NC(=O)[C@@H](CCCNC(=N)N)NC1=O)[C@@H](C)CC)C(C)C)[C@@H](C)O`, in data set [1], the result was Active.

Consider `CC[C@H](C)[C@@H]1NC(=O)[C@@H]2CSSC[C@@H](C(=O)N[C@@H](CO)C(=O)N[C@@H](CC(C)C)C(=O)N[C@@H](CO)C(=O)N[C@H](C(=O)N[C@@H](C)C(=O)N[C@@H](CCC(N)=O)C(=O)N[C@@H](CCC(=O)O)C(=O)O)C(C)C)NC(=O)[C@H](CCCNC(=N)N)NC(=O)[C@H](CCCNC(=N)N)NC(=O)[C@H](CCCCN)NC(=O)[C@H](CCCNC(=N)N)NC(=O)[C@H](CSSC[C@H](NC(=O)[C@H](CO)NC(=O)[C@H](C)N)C(=O)N[C@@H](CCCNC(=N)N)C(=O)N[C@@H](CC(=O)O)C(=O)N[C@@H](CC(=O)O)C(=O)N[C@@H](CO)C(=O)N[C@@H](CCC(=O)O)C(=O)N2)NC(=O)[C@H](CC(C)C)NC(=O)[C@H](CCCNC(=N)N)NC(=O)[C@H]([C@@H](C)O)NC1=O` (H-ASCRDDSECITRLCRKRRCSLSVAQE-OH; disulfide 3-14, 9-19), for which the Activity result in data set [2] is recorded as “Non-Toxic”.

In the case of `CC[C@H](C)[C@@H]1NC(=O)[C@@H]2CSSC[C@@H](C(=O)N[C@@H](CO)C(=O)N[C@@H](CC(C)C)C(=O)N[C@@H](CO)C(=O)N[C@H](C(=O)N[C@@H](C)C(=O)N[C@@H](CCC(N)=O)C(=O)N[C@@H](CCC(=O)O)C(=O)O)C(C)C)NC(=O)[C@H](CCCNC(=N)N)NC(=O)[C@H](CCCNC(=N)N)NC(=O)[C@H](CCCCN)NC(=O)[C@H](CCCNC(=N)N)NC(=O)[C@H](CSSC[C@H](NC(=O)[C@H](CO)NC(=O)[C@H](C)NC(=O)CNC(=O)[C@@H](NC(=O)[C@@H]3CCCN3C(=O)[C@H](CCCNC(=N)N)NC(=O)[C@H](CC(C)C)NC(=O)[C@H](CO)NC(=O)[C@@H](NC(=O)CNC(=O)[C@H](CCCNC(=N)N)NC(=O)[C@H](Cc3c[nH]c4ccccc34)NC(=O)[C@H](Cc3ccccc3)NC(=O)[C@@H]3CCCN3C(=O)[C@@H](NC(=O)[C@@H](N)CCSC)[C@@H](C)O)C(C)C)[C@@H](C)CC)C(=O)N[C@@H](CCCNC(=N)N)C(=O)N[C@@H](CC(=O)O)C(=O)N[C@@H](CC(=O)O)C(=O)N[C@@H](CO)C(=O)N[C@@H](CCC(=O)O)C(=O)N2)NC(=O)[C@H](CC(C)C)NC(=O)[C@H](CCCNC(=N)N)NC(=O)[C@H]([C@@H](C)O)NC1=O` (H-MTPFWRGVSLRPIGASCRDDSECITRLCRKRRCSLSVAQE-OH; disulfide 17-28, 23-33), the Ki (commonly a measure of affinity in units of concentration, obtained from inhibition or displacement) in data set [3] was determined as 1.26 nM. Moreover, the EC50 (as a rule, the midpoint of the concentration-response curve) in data set [4] was 22.8 nM. Besides, the Activity entry in data set [2] is “Non-Toxic”. In addition, the Kb in data set [5] is 1.48 nM; in data set [6], 10.2 nM.

`CCCC[C@H](N)C(=O)N[C@H](C(=O)N1CCC[C@H]1C(=O)N[C@@H](Cc1ccccc1)C(=O)N[C@@H](Cc1c[nH]c2ccccc12)C(=O)N[C@@H](CCCNC(=N)N)C(N)=O)[C@@H](C)O` (H-[Nle]TPFWR-NH2): the inhibition constant Ki in data set [3] turned out to be 55 nM. Also, in data set [4], the EC50 turned out to be 6630 nM.

`CCCC[C@H](N)C(=O)N[C@H](C(=O)N1CCC[C@H]1C(=O)N[C@@H](Cc1ccccc1)C(=O)N[C@@H](Cc1c[nH]c2ccccc12)C(=O)N[C@@H](CCCNC(=N)N)C(=O)NCC(=O)N[C@H](C(N)=O)C(C)C)[C@@H](C)O` (H-[Nle]TPFWRGV-NH2) registered a Ki in data set [3] of 6.45 nM. The EC50 in data set [4] was found to be 368 nM.

In the case of `CCCC[C@H](N)C(=O)N[C@H](C(=O)N1CCC[C@H]1C(=O)N[C@@H](Cc1ccccc1)C(=O)N[C@@H](Cc1c[nH]c2ccccc12)C(=O)N[C@@H](CCCNC(=N)N)C(=O)NCC(=O)N[C@H](C(=O)N[C@@H](CO)C(=O)N[C@@H](CC(C)C)C(N)=O)C(C)C)[C@@H](C)O` (H-[Nle]TPFWRGVSL-NH2), in data set [3], the inhibitory constant (Ki) came out at 3.4 nM. For the same molecule, in data set [4], the concentration for a half-maximal effect (EC50) was 134 nM.

For the molecule `CCCC[C@H](N)C(=O)N[C@H](C(=O)N1CCC[C@H]1C(=O)N[C@@H](Cc1ccccc1)C(=O)N[C@@H](Cc1c[nH]c2ccccc12)C(=O)N[C@@H](CCCNC(=N)N)C(=O)NCC(=O)N[C@H](C(=O)N[C@@H](CO)C(=O)N[C@@H](CC(C)C)C(=O)N[C@@H](CCCNC(=N)N)C(=O)N1CCC[C@H]1C(N)=O)C(C)C)[C@@H](C)O` (H-[Nle]TPFWRGVSLRP-NH2), in data set [3], the Ki turned out to be 2.7 nM. The EC50 in data set [4] was determined as 46 nM. For the same molecule, the Activity entry in data set [2] is recorded as “Non-Toxic”. The outcome in data set [1] and in data set [7] was Active.

In the case of `CCCC[C@H](N)C(=O)N[C@H](C(=O)N1CCC[C@H]1C(=O)N[C@@H](Cc1ccccc1)C(=O)N[C@@H](Cc1c[nH]c2ccccc12)C(=O)N[C@@H](CCCNC(=N)N)C(=O)NCC(=O)N[C@H](C(=O)N[C@@H](CO)C(=O)N[C@@H](CC(C)C)C(=O)N[C@@H](CCCNC(=N)N)C(=O)N1CCC[C@H]1C(=O)N[C@H](C(=O)NCC(N)=O)[C@@H](C)CC)C(C)C)[C@@H](C)O` (H-[Nle]TPFWRGVSLRPIG-NH2), the Ki in data set [3] stood at 3.05 nM. For the same molecule, in data set [4], the EC50 came out at 48 nM.

Turning to `CCCC[C@H](N)C(=O)N[C@H](C(=O)N1CCC[C@H]1C(=O)N[C@@H](Cc1ccccc1)C(=O)N[C@@H](Cc1c[nH]c2ccccc12)C(=O)N[C@@H](CCCNC(=N)N)C(=O)NCC(=O)N[C@H](C(=O)N[C@@H](CO)C(=O)N[C@@H](CC(C)C)C(=O)N[C@@H](CCCNC(=N)N)C(=O)N1CCC[C@H]1C(=O)N[C@H](C(=O)NCC(=O)O)[C@@H](C)CC)C(C)C)[C@@H](C)O` (H-[Nle]TPFWRGVSLRPIG-OH), the inhibitory constant (Ki) in data set [3] came to 3.66 nM. Moreover, in data set [4], the EC50 came out at 76.4 nM. In addition, the Kb in data set [5] was 34.7 nM; in data set [6] it was 89.1 nM.
